Test results: patent US7524840B2, “7,8-disubstituted pyrazolobenzodiazepines” (Hoffmann-La Roche Inc., priority 2004, dated 2009)

Tests used:
[1] = test system: MDA-MB-435; assay: MDA-MB-435 cell-based MTT proliferation assay; settings: Homo sapiens, MDA-MB-435, 120 h, 5 days post addition of test compound, read-out: IC50 for inhibition in the MDA-MB-435 cell-based assay
Method: (§1) The estrogen receptor negative epithelial breast carcinoma line (MDA-MB-435) was purchased from American Type Cell Culture Collection (ATCC; Rockville, Md.) and was grown in the medium recommended by ATCC. For analysis of the effect of the test compounds on growth of these cells, the cells were plated at 2000 cells per well in a 96-well tissue culture plate, and were incubated overnight at 37° C. with 5% CO2. The next day, the test compounds were dissolved in 100% dimethyl sulfoxide (DMSO) to yield a 10 mM stock solution. Each compound was diluted with sterile medium to 1 mM in a sufficient quantity to yield a final concentration of 120 μM. The compounds were then serially diluted in medium with 1.2% DMSO. […] The plates were returned to the incubator, and 5 days post addition of test compound, were analyzed as described below.
(§2) 3-(4,5-Dimethylthiazole-2-yl)-2,5-diphenyl-2H-tetrazolium bromide (thiazolyl blue; MTT) was added to each well to yield a final concentration of 1 mg/mL. […] Absorbencies were read in a microtiter plate reader (Molecular Dynamics) at a wavelength of 570 nm with a 650 nm reference. Percent inhibition was calculated by subtracting the absorbance of the blank (no cell) wells from all wells, then subtracting the division of the average absorbance of each test duplicate by the average of the controls from 1.00. […]

[2] = test system: SW480; assay: SW480 (colon) cell-based MTT proliferation assay; settings: Homo sapiens, SW480, 144 h, 6 days post addition of the test compound, read-out: IC50 for inhibition in the SW480 (colon) based assay
Method: as §1, §2

[3] = target: T1, Cyclin E/CDK2 (Homo sapiens, UniProt P24941); assay: CDK2 Flash Plate Assay (Rb phosphorylation, 33P-ATP); assay type: biochemical
T1 construct: made in house; host or cells: insect cells
Method: To determine inhibition of CDK2 activity, purified recombinant retinoblastoma (Rb) protein was coated on 96 well FlashPlates (New England Nuclear, Boston, Mass.). […] Recombinant active human Cyclin E/CDK2 complexes were partially purified from extracts of insect cells. […] Plates were incubated for 25 minutes at room temperature with shaking, then washed and counted in the Topcount scintillation counter (Packard Instrument Co., Downers Grove, Ill.). Dilutions of test compounds were tested in duplicate in each assay. The percent inhibition of Rb phosphorylation, which is a measure of the inhibition of CDK2 activity, was determined according to the following formula:
[formula] where “test compound” refers to the average counts per minute of the test duplicates, “nonspecific” refers to the average counts per minute when no Cyclin E/CDK2 was added, and “total” refers to the average counts per minute when no compound was added.

[4] = test system: FGF-stimulated HUVEC; assay: FGF-stimulated HUVEC proliferation assay (BrdU); assay type: cell-based; settings: Homo sapiens, BrdU labeling, FGF 5 ng per mL, 24 hour exposure, read-out: Antiproliferative Activity FGF-stimulated HUVEC Assay IC50
Method: The antiproliferative activity of test compounds of this invention in cell-based assays was evaluated by BrdU assay using the BrdU kit (Roche Biochemicals 1-647-229). Human umbilical vein endothelial cells (HUVEC, Clonetics CC-2519) were cultured in EGM-2 (Clonetics CC-3162) medium and seeded at 10000 cells per well in a volume of 200 μL of EGM-2 (Clonetics CC-3162) media in a 96-well flat bottom plates (Costar 3595) overnight. After 24 hours of growth at 37° C. with 5% CO2, the incubation media was removed slowly by aspiration, and the content of each well was washed with 300 μL pre-warmed EBM-2 (Clonetics CC-3156) containing 50 μg per mL of gentamycin and 50 ng per mL of amphotercin-B (Clonetics CC-4083). Subsequently, the remaining media was again aspirated and replaced with 160 μL per well of serum starvation media (EBM-2 supplemented with 1% heat inactivated FBS (Clonetics CC-4102), 50 μg per mL gentamycin and 50 ng per mL of amphotercin-B (Clonetics CC-4083), 10 units per mL of Wyeth-Ayerst heparin (NDC0641-0391-25), and 2 mM L-glutamine (GIBCO 25030-081). After serum starving the cells for 24 hours, 20 μL of test compound at 10× test concentration in serum starvation medium with 2.5% DMSO was added to the appropriate wells. The control wells contained 20 μL of serum starvation medium with 2.5% DMSO. Plates were returned to the incubator for 2 hours. After pre-incubating the cells with the test compounds for 2 hours, 20 μL of growth factors at 10X assay concentration diluted in serum starvation media, FGF at 50 ng per mL, or VEGF (R&D systems 293-VE) at 200 ng per mL were added. The final concentration of FGF in the assay was 5 ng per mL and the final concentration of VEGF in the assays was 20 ng per mL. The growth factor free control wells had 20 μL per well of serum starvation media with the same amount of BSA as the wells with growth factors. The plates were returned to the incubator for an additional 22 hours.
After 24 hour exposure to the test compounds, the cells were labeled with BrdU (Roche Biochemicals 1-647-229), by adding 20 μL per well of BrdU labeling reagent that has been diluted (1:100) in serum starvation medium. The plates were then returned to the incubator for 4 hours. The labeling medium was removed by draining the medium onto paper towels. […] The plates were read at 450 nm with reference wavelength of 650 nm. The percent inhibition for each test compound was calculated by subtracting the absorbency of the blank (no cells) wells from all wells, then subtracting the division of the average absorbency of each test duplicate by the average of the controls from 1. […] The IC50 is determined from the linear regression of a plot of the logarithm of the concentration versus percent inhibition.

[5] = test system: H460a; assay: H460a cell-based MTT proliferation assay; settings: 120 h, 5 days post addition of test compound, read-out: Antiproliferative Activity H460a Assay IC90
Method: The H460a cell line was purchased from (ATCC; Rockville, Md.) and was grown in the medium recommended by ATCC. For analysis of the effect of the test compounds on growth of these cells, the cells were plated at 150 cells per well in a 96-well tissue culture plate, and were incubated overnight at 37° C. with 5% CO2. The next day, the test compounds were dissolved in 100% dimethyl sulfoxide (DMSO) to yield a 10 mM stock solution. Each compound was diluted with sterile medium to 1 mM in a sufficient quantity to yield a final concentration of 120 μM. The compounds were then serially diluted in medium with 1.2% DMSO. One-fourth final volume of the diluted compounds was transferred to 96 well plates. Test compounds were assayed in duplicate. […] The plates were returned to the incubator, and 5 days post addition of test compound, were analyzed as described below. […] Absorbencies were read in a microtiter plate reader (Molecular Dynamics) at a wavelength of 570 nm with a 650 nm reference. Percent inhibition was calculated by subtracting the absorbance of the blank (no cell) wells from all wells, then subtracting the division of the average absorbance of each test duplicate by the average of the controls from 1.00. Inhibitory concentrations (IC50) were determined from the linear regression of a plot of the logarithm of the concentration versus the percent inhibition.

Row | SMILES | IC50 [1] [nM] | IC50 [2] [nM] | IC50 [3] [nM] | IC50 [4] [nM] | IC90 [5] [nM]
1 | Cc1cc2c(cc1C)C(c1ccccc1Cl)=NCC(=O)N2 [Iw, 5-(2-chlorophenyl)-1,3-dihydro-7,8-dimethyl-2H-1,4-benzodiazepin-2-one] | 950 | 950 |  |  | 
2 | COc1cc2c(cc1C#N)C(c1ccccc1Cl)=Nc1c(n[nH]c1C)N2 [IVb, 5-(2-chlorophenyl)-7-cyano-1,2-dihydro-8-methoxy-3-methyl-pyrazolo[3,4-b][1,4]benzodiazepine] |  |  | 184 | 5 | 118
